≈ marks a conversion by molar mass, not a printed value.
What was measured:
[1] = Antioxidant activity assessed as superoxide dismutase-like activity by SOD-WST assay; format: functional
[2] = Antioxidant activity assessed as trolox equivalent of […]-induced radical scavenging activity by ORAC fluorescence assay; format: functional

Compound `COc1cc2cc(c1O)-c1cc(ccc1O)CC[C@@H](OS(=O)(=O)O)CCCC2` has an IC50 [1] greater than 1000 µg/mL and an Activity [2] of 9620 µmolequiv/g.
With `O=c1c(O)c(-c2cc(O)c(O)c(O)c2)oc2cc(O)cc(O)c12` [MYRICETIN] the IC50 [1] was 139.6 µg/mL (≈ 439 µM) and the Activity [2] was 16100 µmolequiv/g.
Work on `COc1c2cc(c(O[C@@H]3O[C@H](COC(=O)c4cc(O)c(O)c(O)c4)[C@@H](O)[C@H](O)[C@H]3O)c1OC)CCCCC(=O)CCc1ccc(O)c-2c1` yielded an IC50 [1] of 106.8 µg/mL (≈ 159 µM).
With `C[C@@H]1O[C@@H](Oc2c(-c3cc(O)c(O)c(O)c3)oc3cc(O)cc(O)c3c2=O)[C@H](OC(=O)c2cc(O)c(O)c(O)c2)[C@H](O)[C@H]1O` the IC50 [1] was 38.6 µg/mL (≈ 62.6 µM).
With `COc1c2cc(c(O[C@@H]3O[C@H](COC(=O)c4cc(O)c(O)c(O)c4)[C@@H](O)[C@H](O)[C@H]3O)c1OC)CCCC[C@@H](O)CCc1ccc(O)c-2c1` the IC50 [1] was 90.5 µg/mL (≈ 135 µM).
Compound `C[C@H]1O[C@@H](Oc2c(-c3cc(O)c(O)c(O)c3)oc3cc(O)cc(O)c3c2=O)[C@@H](O)[C@@H](O)[C@@H]1O` [MYRICITRIN] has an IC50 [1] of 127.5 µg/mL (≈ 275 µM) and an Activity [2] of 13200 µmolequiv/g.
With `COC1=C(OC)C(=O)C2=C(CCCCC(O)CCc3ccc(O)c2c3)C1=O` (stereo not drawn) [ACTINIDIONE] the IC50 [1] was 7.9 µg/mL (≈ 21.2 µM).
Work on `COc1c2cc(c(O[C@@H]3O[C@H](COC(=O)c4cc(O)c(O)c(O)c4)[C@@H](O)[C@H](O)[C@H]3O)c1OC)CCCC[C@H](O)CCc1ccc(O)c-2c1` yielded an IC50 [1] of 139.6 µg/mL (≈ 208 µM).
Compound `COc1c2cc(c(O)c1OC)CCCCC(=O)CCc1ccc(O)c-2c1` [MYRICANONE] has an IC50 [1] greater than 1000 µg/mL.
Work on `O=C(O[C@@H]1Cc2c(O)cc(O)cc2O[C@@H]1c1cc(O)c(O)c(O)c1)c1cc(O)c(O)c(O)c1` [EPIGALOCATECHIN GALLATE] yielded an IC50 [1] of 26.1 µg/mL (≈ 56.9 µM).
Compound `O=C(O[C@@H]1[C@@H](c2c(O)cc(O)c3c2O[C@H](c2cc(O)c(O)c(O)c2)[C@H](OC(=O)c2cc(O)c(O)c(O)c2)C3)c2c(O)cc(O)cc2O[C@@H]1c1cc(O)c(O)c(O)c1)c1cc(O)c(O)c(O)c1` has an IC50 [1] of 19.2 µg/mL (≈ 21 µM).
`COc1c2cc(c(O)c1OC)CCCC[C@@H](O)CCc1ccc(O)c-2c1` showed an IC50 [1] greater than 100 µg/mL.
For `O=C(O)c1cc(O)c(O)c(O)c1` [GALLIC ACID], the IC50 [1] was 6.3 µg/mL (≈ 37 µM).
In the case of `COc1c2cc(c(O)c1OC)CCCC[C@@H](OS(=O)(=O)O)CCc1ccc(O)c-2c1`, the IC50 [1] is reported as 786.9 µg/mL (≈ 1790 µM) and the Activity [2] is reported as 8680 µmolequiv/g.

Reference: ChEMBL document CHEMBL2151013, “Diarylheptanoid sulfates and related compounds from Myrica rubra bark” (J Nat Prod, 2012)
